Like-named read-outs stand apart in the source and are kept apart here.
Key:
Type in all cases: in vivo
Blackgrass = test: post-emergence herbicide test; settings: Alopecurus myosuroides, post-emergence, read-out: % plant inhibition; for inhibition at 40.0143 g/ha: 0.0357 lb/A; for inhibition at 200.072 g/ha: 0.1785 lb/A; for inhibition at 1000.92 g/ha: 0.893 lb/A; for inhibition at 5043.82 g/ha: 4.5 lb/A
Procedure, shortened: (§1)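 Soil pans seeded, covered and leveled; grown in greenhouse 2–3 weeks. Sprayed individually (atomizer, 10 psig, 200 gallons/acre). Percent inhibition recorded.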

Morning Glory [1] = test: post-emergence herbicide test; settings: Ipomoea, post-emergence, read-out: % plant inhibition
Procedure, shortened: as §1

Yellow Nutsedge [2] = test: post-emergence herbicide test; settings: Cyperus, read-out: % plant inhibition
Procedure, shortened: as §1

Velvetleaf [3] = test: post-emergence herbicide test; settings: Abutilon theophrasti, post-emergence, read-out: % plant inhibition
Procedure, shortened: as §1

Common Chickweed = test: post-emergence herbicide test; settings: post-emergence, read-out: % plant inhibition
Procedure, shortened: as §1

Yellow Foxtail [4] = test: post-emergence herbicide test; settings: Setaria, read-out: % plant inhibition
Procedure, shortened: as §1

Corn [5] = test: post-emergence herbicide test; settings: Zea mays, post-emergence, read-out: % plant inhibition
Procedure, shortened: as §1

Cocklebur = test: pre-emergence herbicide test; settings: Xanthium strumarium, pre-emergence, read-out: % plant inhibition
Procedure, shortened: (§2)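 Pans of compacted topsoil received seeds and then a cover layer treated with test compound from an acetone or water carrier. Plants grew under greenhouse conditions with moisture supplied from below. Observations of % inhibition followed roughly 14 days after treatment.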

Morning Glory [6] = test: pre-emergence herbicide test; settings: Ipomoea, pre-emergence, read-out: % plant inhibition
Procedure, shortened: as §2

Yellow Nutsedge [7] = test: pre-emergence herbicide test; settings: Cyperus, read-out: % plant inhibition
Procedure, shortened: as §2

Velvetleaf [8] = test: pre-emergence herbicide test; settings: Abutilon theophrasti, pre-emergence, read-out: % plant inhibition
Procedure, shortened: as §2

Soybean = test: pre-emergence herbicide test; settings: Glycine max, pre-emergence, read-out: % plant inhibition
Procedure, shortened: as §2

Yellow Foxtail [9] = test: pre-emergence herbicide test; settings: Setaria, read-out: % plant inhibition
Procedure, shortened: as §2

Corn [10] = test: pre-emergence herbicide test; settings: Zea mays, pre-emergence, read-out: % plant inhibition
Procedure, shortened: as §2

Barnyardgrass = test: pre-emergence herbicide test; settings: Echinochloa crus-galli, pre-emergence, read-out: % plant inhibition
Procedure, shortened: as §2

Rice = test: pre-emergence herbicide test; settings: Oryza sativa, read-out: % plant inhibition
Procedure, shortened: as §2

Cc1c(-c2cc(O)c(Cl)cc2F)nn(C)c1C(F)(F)F [Compound 40]
85%: inhibition at 1000.92 g/ha (Corn [5]; 0.893 lb/A) | inhibition at 5043.82 g/ha (Corn [10]; 4.5 lb/A)
100%: inhibition at 5043.82 g/ha (Blackgrass; Table 5a) | inhibition at 5043.82 g/ha (Morning Glory [1]; 4.5 lb/A) | inhibition at 1000.92 g/ha (Velvetleaf [3]; 0.893 lb/A) | inhibition at 5043.82 g/ha (Velvetleaf [3]; 4.5 lb/A) | inhibition at 5043.82 g/ha (Yellow Foxtail [4]; 4.5 lb/A) | inhibition at 5043.82 g/ha (Cocklebur; 4.5 lb/A) | inhibition at 5043.82 g/ha (Morning Glory [6]; 4.5 lb/A) | inhibition at 5043.82 g/ha (Velvetleaf [8]; 4.5 lb/A) | inhibition at 5043.82 g/ha (Yellow Foxtail [9]; 4.5 lb/A) | inhibition at 5043.82 g/ha (Barnyardgrass; 4.5 lb/A)
25%: inhibition at 40.0143 g/ha (Corn [5]; 0.0357 lb/A)
80%: inhibition at 1000.92 g/ha (Morning Glory [1]; 0.893 lb/A) | inhibition at 1000.92 g/ha (Yellow Foxtail [9]; 0.893 lb/A)
50%: inhibition at 1000.92 g/ha (Blackgrass; Table 4a) | inhibition at 40.0143 g/ha (Morning Glory [1]; 0.0357 lb/A) | inhibition at 200.072 g/ha (Common Chickweed; 0.1785 lb/A) | inhibition at 5043.82 g/ha (Corn [5]; 4.5 lb/A) | inhibition at 1000.92 g/ha (Morning Glory [6]; 0.893 lb/A)
30%: inhibition at 5043.82 g/ha (Blackgrass; Table 4a)
0%: inhibition at 40.0143 g/ha (Blackgrass; Table 4a) | inhibition at 40.0143 g/ha (Blackgrass; Table 5a) | inhibition at 200.072 g/ha (Blackgrass; Table 4a) | inhibition at 1000.92 g/ha (Yellow Nutsedge [2]; 0.893 lb/A) | inhibition at 5043.82 g/ha (Yellow Nutsedge [2]; 4.5 lb/A) | inhibition at 40.0143 g/ha (Yellow Foxtail [4]; 0.0357 lb/A) | inhibition at 200.072 g/ha (Yellow Foxtail [4]; 0.1785 lb/A) | inhibition at 40.0143 g/ha (Cocklebur; 0.0357 lb/A) | inhibition at 200.072 g/ha (Cocklebur; 0.1785 lb/A) | inhibition at 40.0143 g/ha (Morning Glory [6]; 0.0357 lb/A) | inhibition at 200.072 g/ha (Morning Glory [6]; 0.1785 lb/A) | inhibition at 40.0143 g/ha (Yellow Nutsedge [7]; 0.0357 lb/A) | inhibition at 200.072 g/ha (Yellow Nutsedge [7]; 0.1785 lb/A) | inhibition at 5043.82 g/ha (Yellow Nutsedge [7]; 4.5 lb/A) | inhibition at 40.0143 g/ha (Velvetleaf [8]; 0.0357 lb/A) | inhibition at 200.072 g/ha (Velvetleaf [8]; 0.1785 lb/A) | inhibition at 40.0143 g/ha (Soybean; 0.0357 lb/A) | inhibition at 200.072 g/ha (Soybean; 0.1785 lb/A) | inhibition at 40.0143 g/ha (Yellow Foxtail [9]; 0.0357 lb/A) | inhibition at 200.072 g/ha (Yellow Foxtail [9]; 0.1785 lb/A) | inhibition at 40.0143 g/ha (Corn [10]; 0.0357 lb/A) | inhibition at 200.072 g/ha (Corn [10]; 0.1785 lb/A) | inhibition at 40.0143 g/ha (Barnyardgrass; 0.0357 lb/A) | inhibition at 200.072 g/ha (Barnyardgrass; 0.1785 lb/A) | inhibition at 40.0143 g/ha (Rice; 0.0357 lb/A) | inhibition at 200.072 g/ha (Rice; 0.1785 lb/A) | inhibition at 1000.92 g/ha (Rice; 0.893 lb/A)
10%: inhibition at 1000.92 g/ha (Yellow Foxtail [4]; 0.893 lb/A)
98%: inhibition at 1000.92 g/ha (Common Chickweed; 0.893 lb/A) | inhibition at 5043.82 g/ha (Common Chickweed; 4.5 lb/A)
55%: inhibition at 200.072 g/ha (Yellow Nutsedge [2]; 0.1785 lb/A) | inhibition at 40.0143 g/ha (Velvetleaf [3]; 0.0357 lb/A)
75%: inhibition at 200.072 g/ha (Velvetleaf [3]; 0.1785 lb/A)
60%: inhibition at 1000.92 g/ha (Velvetleaf [8]; 0.893 lb/A)
15%: inhibition at 40.0143 g/ha (Common Chickweed; 0.0357 lb/A)
35%: inhibition at 200.072 g/ha (Blackgrass; Table 5a) | inhibition at 1000.92 g/ha (Barnyardgrass; 0.893 lb/A)
65%: inhibition at 1000.92 g/ha (Blackgrass; Table 5a) | inhibition at 5043.82 g/ha (Rice; 4.5 lb/A)
20%: inhibition at 1000.92 g/ha (Soybean; 0.893 lb/A) | inhibition at 5043.82 g/ha (Soybean; 4.5 lb/A)
45%: inhibition at 200.072 g/ha (Corn [5]; 0.1785 lb/A) | inhibition at 1000.92 g/ha (Cocklebur; 0.893 lb/A)
70%: inhibition at 200.072 g/ha (Morning Glory [1]; 0.1785 lb/A) | inhibition at 40.0143 g/ha (Yellow Nutsedge [2]; 0.0357 lb/A) | inhibition at 1000.92 g/ha (Yellow Nutsedge [7]; 0.893 lb/A)
5%: inhibition at 1000.92 g/ha (Corn [10]; 0.893 lb/A)

— patent US5672715A, “Herbicidal substituted 3-aryl-pyrazoles” (Monsanto Company, priority 1995, dated 1997)
